Like-named read-outs stand apart in the source and are kept apart here.
Experiments:
[1] = biological target: T1, Muscarine M1 (GPCR-A-MA-ACH M1) (Homo sapiens, UniProt P11229); experiment: Muscarine M1 receptor binding, 3H-Pirenzepine; details: human M1, CHO cells, ligand 2 nM, 60 min/22° C., read-out: RB Musc. M1 3H-Pirenzepine pKi (converted)
T1 construct: expressed in transfected cells; host or cells: CHO cells
T1 sequence (P11229 1-460): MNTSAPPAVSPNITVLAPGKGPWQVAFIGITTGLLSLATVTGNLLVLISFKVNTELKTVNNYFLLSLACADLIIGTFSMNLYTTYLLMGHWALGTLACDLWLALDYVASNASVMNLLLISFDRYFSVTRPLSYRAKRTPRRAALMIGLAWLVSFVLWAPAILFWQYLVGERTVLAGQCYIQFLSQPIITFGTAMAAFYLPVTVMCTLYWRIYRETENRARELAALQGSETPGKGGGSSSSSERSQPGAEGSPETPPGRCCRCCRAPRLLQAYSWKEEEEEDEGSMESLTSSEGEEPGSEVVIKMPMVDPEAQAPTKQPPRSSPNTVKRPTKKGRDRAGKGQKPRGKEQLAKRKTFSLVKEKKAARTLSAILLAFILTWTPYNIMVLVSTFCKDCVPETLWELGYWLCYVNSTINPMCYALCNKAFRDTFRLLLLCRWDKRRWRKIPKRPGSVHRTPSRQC
Procedure, shortened: (§1)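 Human M1 ([3H]-pirenzepine), M3, and M4 ([3H]-4DAMP or [3H]-oxotremorine) receptor preparations incubated with radioligand and compound, first at 10 μM, then at 10-fold lower concentrations if inhibition exceeded 40%. Bound ligand separated by glass-fibre filtration and counted by scintillation. IC50 from Hill fit, converted to Ki via Cheng-Prusoff, reported as pKi.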

[2] = biological target: T2, Muscarine M4 (GPCR-A-MA-ACH M4) (Homo sapiens, UniProt P08173); experiment: Muscarine M4 receptor binding, 3H-4DAMP; details: human M4, CHO cells, ligand 0.2 nM, 60 min/22° C., read-out: RB Musc. M4 3H-DAMP pKi (converted)
T2 construct: expressed in transfected cells; host or cells: CHO cells
T2 sequence (P08173 1-479): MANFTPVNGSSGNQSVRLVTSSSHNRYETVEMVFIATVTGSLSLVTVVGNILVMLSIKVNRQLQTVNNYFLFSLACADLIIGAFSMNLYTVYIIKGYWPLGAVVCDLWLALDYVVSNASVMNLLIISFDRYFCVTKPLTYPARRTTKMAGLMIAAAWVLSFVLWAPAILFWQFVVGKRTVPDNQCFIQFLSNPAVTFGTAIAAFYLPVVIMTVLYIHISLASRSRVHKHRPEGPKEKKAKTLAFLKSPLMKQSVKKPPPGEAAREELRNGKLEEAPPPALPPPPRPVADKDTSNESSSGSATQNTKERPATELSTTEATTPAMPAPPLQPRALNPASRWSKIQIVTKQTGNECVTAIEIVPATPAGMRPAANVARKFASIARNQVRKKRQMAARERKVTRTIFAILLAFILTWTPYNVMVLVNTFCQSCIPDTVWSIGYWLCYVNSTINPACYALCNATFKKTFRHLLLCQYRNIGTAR
Procedure, shortened: as §1

[3] = biological target: T3, Muscarine M2 (GPCR-A-MA-ACH M2) (Cavia porcellus, UniProt H0VRN8); experiment: Muscarine M2 functional assay, isolated organ (left atrium, electrically paced), agonist and antagonist mode; set-up: species or system Guinea Pig; details: for EC50: read-out: Cell funct. Musc. M2 Agonism pEC50 (converted)
T3 construct: from tissue; host or cells: guinea pig left atrium (electrically paced)
T3 sequence (H0VRN8 1-466): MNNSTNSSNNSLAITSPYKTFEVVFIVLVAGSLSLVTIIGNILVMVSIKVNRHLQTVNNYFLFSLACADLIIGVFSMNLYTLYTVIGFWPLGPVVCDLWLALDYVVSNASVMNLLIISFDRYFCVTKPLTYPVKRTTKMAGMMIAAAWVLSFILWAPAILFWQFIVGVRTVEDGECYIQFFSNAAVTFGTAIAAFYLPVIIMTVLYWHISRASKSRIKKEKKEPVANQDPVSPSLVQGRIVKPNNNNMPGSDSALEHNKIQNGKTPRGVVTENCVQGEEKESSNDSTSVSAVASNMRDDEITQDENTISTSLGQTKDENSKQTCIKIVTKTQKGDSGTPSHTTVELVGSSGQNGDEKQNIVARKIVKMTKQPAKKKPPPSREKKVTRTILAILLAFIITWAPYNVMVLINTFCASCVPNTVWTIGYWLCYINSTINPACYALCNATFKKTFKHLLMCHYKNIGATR

[4] = biological target: T4, Muscarine M3 (GPCR-A-MA-ACH M3) (Homo sapiens, UniProt P20309); experiment: Muscarine M3 receptor binding; details: human M3, CHO cells; receptor binding
T4 construct: expressed in transfected cells; host or cells: CHO cells

[5] = biological target: T2, Muscarine M4 (GPCR-A-MA-ACH M4); experiment: Muscarine M4 receptor binding, 3H-Oxotremorine; details: human M4, CHO cells; receptor binding, ligand 6 nM, 30 min/25° C.; read-out: RB Musc. M4 3H-Oxotremorine pKi (converted)
Procedure, shortened: as §1

[6] = read-out: Cell funct. Musc. M2 Antagonism pA2 (converted)

T4 sequence (P20309 whole entry): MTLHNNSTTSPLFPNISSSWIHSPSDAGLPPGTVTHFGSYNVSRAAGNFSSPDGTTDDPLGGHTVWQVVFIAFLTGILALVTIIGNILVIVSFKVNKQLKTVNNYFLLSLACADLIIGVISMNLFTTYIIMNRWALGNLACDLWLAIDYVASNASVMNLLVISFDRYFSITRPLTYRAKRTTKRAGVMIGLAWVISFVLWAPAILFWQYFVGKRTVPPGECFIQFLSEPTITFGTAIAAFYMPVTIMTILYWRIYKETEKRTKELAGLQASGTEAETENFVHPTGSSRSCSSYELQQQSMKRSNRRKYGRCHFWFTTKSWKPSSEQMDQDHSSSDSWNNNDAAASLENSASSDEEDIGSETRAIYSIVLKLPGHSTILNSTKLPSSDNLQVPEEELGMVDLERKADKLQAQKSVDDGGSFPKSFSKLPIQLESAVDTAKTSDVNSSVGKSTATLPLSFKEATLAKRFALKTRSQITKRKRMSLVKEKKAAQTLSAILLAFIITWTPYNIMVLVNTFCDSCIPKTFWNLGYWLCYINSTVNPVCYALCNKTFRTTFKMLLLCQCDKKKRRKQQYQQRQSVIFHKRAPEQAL

Ki [1] [nM]	Ki [2] [nM]	EC50 [3] [nM]	Kb [3, 6] [nM]	Ki [4] [nM]	Ki [5] [nM]	Kb [3] [nM]	SMILES
794	100	> 1000	> 1000	316	63.1		C=CCCCSc1c[nH]nc1C1=CCCN(C)C1 [Compound 22L]
3980	501	> 1000	> 1000	1000	316		C=CCCCOc1c[nH]nc1C1=CCCN(C)C1 [Compound 33F, 3-(4-Pent-4-enyloxy-1H-pyrazol-3-yl)-1,2,5,6-tetrahydro-1-methylpyridine]
7940	794	> 1000		2510	398	20	CCOCCSc1c[nH]nc1C1=CCCN(C)C1 [Compound 22O, 3-[4-(2-Ethoxy-ethylsulfanyl)-1H-pyrazol-3-yl]-1,2,5,6-tetrahydro-1-methylpyridine]
1580	200	> 1000	> 1000	794	126		CCCCCOc1c[nH]nc1C1=CCCN(C)C1 [Compound 33G, 3-(4-Pentyloxy-1H-pyrazol-3-yl)-1,2,5,6-tetrahydro-1-methylpyridine]
631	251	> 1000	> 1000	316	63.1		CN1CCC=C(c2n[nH]cc2SCCC=C(F)F)C1 [Compound 22J, 3-[4-(4,4-Difluoro-but-3enylsulfanyl)-1H-pyrazol-3-yl]-1,2,5,6-tetrahydro-1-methylpyridine]

— patent US8735388B2, “Heterocyclic compounds with affinity to muscarinic receptors” (Abbvie B. V. A., priority 2007, dated 2014)
